Source: patent US20250170172A1, “METHODS FOR TREATING LENTIVIRUS INFECTION” (Jericho Sciences, LLC, priority 2022, published 2025)

Key:
[1] = tested on: IL-21 mRNA positive cells; test: IL-21 mRNA positive cell frequency in lymph node and spleen by FISH; format: in vivo, Rhesus macaque (Macaca Mulatta); conditions: FX-only treated animals; lymph nodes and spleen
Experimental: (§1) The higher Tier 2 antibody productions indicated differences in germinal center capacities, so we performed (blinded) histochemical evaluation of axillary lymph node and spleen tissues collected at necropsy. Tissues were evaluated using fluorescent in situ hybridization (FISH) probes for each, IL-21 mRNA and SIV mRNA. Cells (stained with 4′,6-diamidino-2-phenylindole) were designated either positive or negative for each hybridization label. The frequency of positive cells was determined by dividing the positive signal by the total number of cells in the field of vision.
Immunohistochemistry and in situ hybridization of lymph node and spleen tissues collected at termination. Five μm formalin fixed paraffin embedded tissues sections were mounted on Superfrost Plus Microscope slides, baked overnight at 60° C. and passed through xylene, graded ethanol, and double distilled water to remove paraffin and rehydrate tissue sections. A microwave was used for heat induced epitope retrieval (HIER). […]
(§2) Quantification of fluorescent immunohistochemistry and in situ hybridization. […] Whole slide images were analyzed using HALO image analysis software v3.1 (Indica Labs, Albuquerque, NM). […] When quantifying SIV infected cells, areas with a dendritic pattern were excluded from the analysis. […] Comparison of treatment groups was assessed using a Mann-Whitney Test (2-tailed, nonparametric)

SIV mRNA positive cells = test: SIV mRNA positive cell frequency in lymph node and spleen by FISH; format: in vivo, Rhesus macaque (Macaca Mulatta); conditions: FX-only treatment group
Experimental: as §1, with “vision. […]” for “vision.”
as §2
The frequency of SIV positive cells per million cells was determined using fluorescent in situ hybridization (FISH) as described in Example 8. […]

[2] = tested on: zinc binding domain of nucleocapsid protein peptide; test: MALDI-TOF competitive binding to nucleocapsid protein peptide in presence of zinc; design: species or system HIV; conditions: equimolar ~2×10^−4 Molar in saline, with and without zinc
Experimental: FIG. 1 illustrates in vitro competitive binding of FX101 to the zinc binding domain of nucleocapsid protein peptide in the presence of zinc ions using Matrix-assisted laser desorption ionization (MALDI)—time of flight (TOF) analyses. Mixtures were prepared in equimolar concentrations of ˜2×10^−4 Molar solutions in saline. […] Mass Spectrometer: Voyager DE STR (Applied Biosystems). Software: Voyager Instrument Control Panel (v 5.1) and Data Explorer (v4.0) Instrument Method: (a) ACTH_Reflector_Aug24_2010; Accelerating voltage 25000; Grid voltage 63.8%; Mirror voltage ratio1.12, Laser Rep Rate 20.0 Hz Band width 500: Vertical Scale 50, Bin size 0.5: Acquisition mass range 800-4000 Da; Delay 155, 165, or […], Laser Intensity 1480-1590. (b) angiotensine.bic, 75 nsec delay time Calibration: C1 or C2 standards in DHB matrix. Matrix: DHB (Laser BioLabs, France), 10 mg/ml in (a) 50% acetonitrile/50% water-0.1% TFA/50% water, no TFA, and (b) 50% ethanol/50% water, no TFA. Spotted: 0.5 μL sample.
The nucleocapsid protein (NC) of HIV is an established but elusive therapeutic target for HIV infection. Currently available antiretroviral drugs predominately target viral enzymes involved in replication, including reverse transcriptase, integrase and protease. Recently, a new drug class targeting the structural capsid protein has been approved. […]

SIVmac251 = test: Plasma viremia by TAQMAN RT-PCR in SIVmac251-infected Rhesus macaques; format: in vivo, Rhesus macaque (Macaca Mulatta); conditions: monotherapy 3.0 mg/kg 3 times weekly, subcutaneous
Experimental: Twenty-four specific pathogen-free (SPF), all male, Rhesus macaque (Macaca Mulatta) nonhuman primates (NHPs) of Indian origin were utilized for this study. The animals were tested to be free from simian type D retrovirus (SRV), simian immunodeficiency virus (SIV), simian T-cell lymphotropic/leukemia virus (STLV) and Cercopithecine herpesvirus 1 (CHV-1) at study initiation. All animals were pre-screened as negative for the protective MHC class I alleles Mamu-A*01, Mamu-B*08, and Mamu-B*17 since these alleles are associated with elite control of SIV infection. All animal studies were approved by the appropriate Institutional Animal Care and Use Committee (IACUC).
Inoculation of NHPs with SIVmac251. […] Each animal was subsequently monitored.
The twenty-four (24) SIVmac251-infected Rhesus macaques were divided into four groups: (1) sham-treated controls (vehicle only); (2) FX101-treated; (3) combination antiretroviral therapy (cART)-treated and (4) FX101 plus cART-treated. […] Comparative evaluations between groups were determined to evaluate whether FX101 alone and/or in combination with cART safely reduces virus in plasma, CSF, tissue reservoirs and/or sanctuary sites. […] Comparative longitudinal clinical measures were assessed to evaluate the safety profile. […]
Determination of plasma and CSF Viral RNA Levels. The amount of RNA copies per ml was determined using a TAQMAN assay. […]

[3] = Safety assessment in SIV-infected Rhesus macaques (blood counts, clinical chemistries, flow cytometry, necropsy, histochemistry); format: in vivo, Rhesus macaque (Macaca Mulatta); conditions: 3 mg/kg, 3 times weekly for up to 24 weeks, subcutaneous
Experimental: Antiviral treatments were initiated at 10 weeks post-infection after the initial inflammatory response had subsided. All drug treatments were administered subcutaneously to avoid repeated sedations of the animals. The control animals received vehicle only (10% dimethylsulfoxide in phosphate buffered saline, DMSO/PBS). The dual-treated group received equal dosing amounts and frequencies of FX101 (3.0 mg/kg, 3× weekly) and cART (daily); the cART treatment group received two nucleo(t/s)ide RT inhibitors (NRTIs), emtricitabine (FTC, 50 mg/kg) and tenofovir disoproxil fumarate (TDF, tenofovir prodrug, 5.1 mg/kg) plus one integrase strand transfer inhibitor (INSTI), dolutegravir (DTG, 2.5 mg/kg). […] Therapeutic cART treatments were administered for up to 24 total weeks, with animals followed for up to 27 weeks post cART cessation (˜1 year post infection). All animals were monitored daily for signs of adverse events during the study.
Safety was assessed by complete blood chemistries, clinical chemistries, flow cytometry, gross necropsies and histochemical tissue imaging. There were no apparent drug-related adverse events between treatment arms across these measures over the study timeline. However, since all the animals were SIV-infected, measures and observations outside of normal healthy expected ranges occurred. […]

dengue virus = conditions: cited from earlier work
[4] = tested on: Japanese encephalitis virus (JEV); conditions: cited from earlier work

Row | Compound | frequencies of IL-21 mRNA positive cells versus control animals [1] | frequencies of virus in spleen and lymph nodes relative to the cART group (SIV mRNA positive cells) | binding to the nucleocapsid protein zinc domain peptide [2] | direct virus replication inhibition, plasma viremia during the treatment period (SIVmac251) | adverse events / tolerability [3] | inhibition of dengue virus infection (dengue virus) | inhibition of Japanese encephalitis virus (JEV) infection [4]
1 | [NH2][Pt]([NH2])([Cl])([Cl])([Cl])[N+](=O)[O-] [FX101] | higher than for the control animals in both lymph nodes and spleen | very low frequencies of virus in both spleen and lymph nodes | binds to the peptide, even in the presence of zinc | no apparent direct virus replication inhibiting activities | safe and well tolerated |  | 
2 | c1ccc(CN(CCN(Cc2ccccn2)Cc2ccccn2)Cc2ccccn2)nc1 [TPEN, N,N,N′,N′-tetrakis(2-pyridinylmethyl)-1,2-ethanediamine] |  |  |  |  |  | inhibits dengue virus | inhibits dengue virus and Japanese encephalitis virus (JEV) infection
